The test deals with α7 nAChR subtype (Rattus norvegicus, UniProt Q05941). The class given is binding.
α7 nAChR subtype, sequence (Q05941 23-502 limits assumed): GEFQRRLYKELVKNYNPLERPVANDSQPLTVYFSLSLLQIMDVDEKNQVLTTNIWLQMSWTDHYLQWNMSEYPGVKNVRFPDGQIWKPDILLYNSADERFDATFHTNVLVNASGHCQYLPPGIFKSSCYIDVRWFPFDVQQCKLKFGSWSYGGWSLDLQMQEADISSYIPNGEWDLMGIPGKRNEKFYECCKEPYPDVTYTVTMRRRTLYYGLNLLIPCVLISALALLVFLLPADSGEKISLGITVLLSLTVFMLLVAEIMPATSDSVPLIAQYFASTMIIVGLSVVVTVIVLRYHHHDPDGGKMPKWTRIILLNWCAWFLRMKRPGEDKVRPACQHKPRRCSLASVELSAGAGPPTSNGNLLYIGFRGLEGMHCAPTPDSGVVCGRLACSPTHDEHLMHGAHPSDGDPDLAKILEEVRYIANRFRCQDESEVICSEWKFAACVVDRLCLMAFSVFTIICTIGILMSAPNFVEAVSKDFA

Substance ^125I-α-Bungarotoxin [^125I-α-BTX] came in with a Kd of 1.67 nM.

For the origin of these results see patent US20070249588A1 (priority 2003, published 2007).
